Where a name gives a salt, the structure may show the parent alone. Read-outs that look alike come from different tables or passages of the source.
Key:
[1] = system: spontaneous hypertensive rat; assay: antihypertensive activity in the spontaneous hypertensive rat, indirect tail cuff method; format: in vivo; details: 50 mg/kg of body wt, intraperitoneal, 3 days, measured on third day, group of 4 rats
Description: According to this procedure, the test compound is administered intraperitoneally to a group of 4 rats for 3 days. The decrease in blood pressure is measured on the third day of administration.

[2] = system: phenyl-para-quinone induced writhing; assay: phenyl-para-quinone writhing assay in mice (analgesia); format: in vivo; details: Mus musculus, sc, read-out: Analgesic Activity ED50 (dose at which 50% of the phenyl-para-quinone induced writhing is inhibited)
Source text: Exptl. Biol. Med., 95, 729 (1957)]. Presented in Table I is the analgesic effect of some of the compounds of the invention, expressed as the subcutaneous dose at which 50% of the phenyl-para-quinone induced writhing is inhibited in the animals, i.e., the ED50.

[3] = system: apomorphine-induced climbing; assay: climbing mice assay (apomorphine-induced climbing); format: in vivo; details: intraperitoneal 30 min before apomorphine 1.5 mg/kg s.c.
Description: The subject CK-1 male mice (23-27 grams) are group-housed under standard laboratory conditions. The mice are individually placed in wire mesh stick cages (4"×4" by 10") and are allowed one hour for adaptation and exploration of the new environment.
For evaluation of climbing, 3 readings are taken at 10, 20 and 30 minutes after apomorphine administration according to the following scale:
Mice consistently climbing before the injection of apormorphine will be discarded.
With full-developed apomorphine climbing, the animals are hanging onto the cage walls, rather motionless, over longer periods of time. By contrast, climbs due to mere motor stimulation usually only last a few seconds.
The climbing scores are individually totaled (maximal score: 6 per mouse over 3 readings) and the total score of the control group (vehicle intraperitoneally--apomorphine subcutaneously) is set to 100%.

[4] = system: conditioned avoidance; assay: Sidman Avoidance Paradigm in squirrel monkeys; format: in vivo, squirrel monkeys (Saimiri sciureus); details: Primates
Source text: The subjects are male squirrel monkeys (Saimiri sciureus). They are housed in individual home cages in the animal quarters for at least six weeks prior to training. When they are not in the test chambers, the subjects are maintained in their home cages with water available ad libitum and food available twice daily.
The apparatus consists of test cages (BRS/LVE) with a single lever and house-light. This is enclosed in a sound-attenuating chamber (BRS/LVE) with fan and the chambers are in an isolated room equipped with a speaker emitting a white-noise auditory background. The test cages have a grid floor of steel bars which are attached to a scrambled shock source (Coulbourn Instruments). The house-lights, shockers and response levers are controlled by BRS/LVE electromechanical timer and controls. The records of responses and shocks are recorded on Coulbourn print-out counters and Gerbrands cumulative recorders.
The monkeys are trained to avoid an unsignaled shock by repetitive lever-pressing responses. A shock (1.0 mA for 0.5 seconds) is delivered to the grid floor every 20 seconds if no responses are made (shock-shock interval of 20 seconds: SS-20"). A lever-press (response) will delay the oncoming shock for 20 seconds (Response-Shock interval of 20 seconds: RS-20").
Every 15 minutes the total number of shocks received and the total number of responses made are accumulated and constitute the basic data. The animals are trained until they maintain a stable response-rate and are receiving no more than 50 shocks per 4 hour test session. After reaching these criteria of performance, experimental compounds are administered and their effects on the performance of this learned avoidance behavior are evaluated.
The drug's effect on performance of each animal is compared to the performance data generated in the previous non-drug session. Each animal thereby serves as its own control. The basic measures of performance during a specific time interval, responses and shocks, are used for evaluation. Responses are reported both as totals and as percent of control responses. Shocks are reported as totals and as shock-avoided (SHA) as percent of control. This latter measure is computed by subtracting the number of shocks received from the total number of possible shocks if no responses are made.
However, an ED50 may be estimated during a representative time of peak activity.

[5] = system: extrapyramidal symptomatology; details: monkey, in vivo, po
Description: Adult male squirrel monkeys (Saimiri sciurens) are housed in individual home cages and fed twice daily with water available "ad libitum" when they are not in the test chambers.
On the test day, drugs are administered by oral intubation immediately prior to testing in volumes of 1.0 cc/kg of body weight. The compounds are dissolved in distilled water or suspended with the addition of one drop of Tween-80 per 10 cc of solution.
After dosing, the monkeys are placed in observation chambers in an isolated room. Two experienced investigators observe the monkeys for dyskinetic symptomatology at 2, 4 and 6 hours postdose. They score the monkeys for the following specific dyskinetic symptomatology:
Circling--when the monkey rapidly circles the cage floor
"Duck walk"--when the monkey walks in a seated position with arms curled and held tightly to his side
Limb extension--an abnormal, prolonged extension of one or more limbs, similar to but of longer duration than a stretching motion
Pushing--the monkey will push against the cage wall with his head or body, frequently at the end of a circling episode
Writhing--slow, writhing movements of the whole body frequently in conjunction with a pushing episode
Oral dyskinesias--chewing, gnawing and abnormal tongue protrusions
The following scoring index is used in order to quantify the severity of symptoms:

[6] = squirrel monkeys, oral intubation immediately prior to testing, avoidance response, read-out: Antipsychotic Activity, Avoidance Response ED50
[7] = squirrel monkeys, oral intubation immediately prior to testing, escape response, read-out: Antipsychotic Activity, Escape Response ED50

For `Cl.Fc1ccc2c(CCCN3CCN(c4cccc(C(F)(F)F)c4)CC3)noc2c1` [Example 5, 1-[3-(6-Fluoro-1,2-benzisoxazol-3-yl)propyl]-4-(3-trifluoromethylphenyl)piperazine hydrochloride], which “Blood Pressure Decrease (mean arterial blood pressure)” value (“Blood Pressure Decrease” for short) [1] is on record?
Its value is 66 mm/mercury.

`Fc1ccc(N2CCN(CCCc3noc4cc(F)ccc34)CC2)cc1.O=C(O)C(=O)O` [Example 3, 1-[3-(6-Fluoro-1,2-benzisoxazol-3-yl)propyl]-4-(4-fluorophenyl)piperazine oxalate] was tested. Which “Blood Pressure Decrease” value [1] did it give?
Its value is 33 mm/mercury.

`CCC(=O)O[C@](Cc1ccccc1)(c1ccccc1)[C@H](C)CN(C)C` [propoxyphene, reference compound] was tested. Which ED50 [2] did it give?
Its ED50 is 3.9 mg/kg.

What does the source list for `Fc1ccc2c(CCCN3CCN(c4ccccc4)CC3)noc2c1.O=C(O)C(=O)O` [Example 2, 1-[3-(6-Fluoro-1,2-benzisoxazol-3-yl)propyl]-4-phenylpiperazine oxalate]?
ED50 ([2]; mice, subcutaneous): 1.8 mg/kg; Blood Pressure Decrease (mean arterial blood pressure) [1]: 38 mm/mercury; Antipsychotic Activity (% decrease in climbing score) ([3]; dose 10 mg/kg of body wt): 31%

How did the ED50 ([2]; mice, subcutaneous) turn out when `Cl.Cl.Fc1ccc2c(CCCN3CCN(c4ccccn4)CC3)noc2c1` [Example 10, 1-[3-(6-Fluoro-1,2-benzisoxazol-3-yl)propyl]-4-(2-pyridyl)piperazine dihydrochloride] was run?
Its ED50 is 0.8 mg/kg.

What about the “Blood Pressure Decrease” value [1] of the same compound?
Its value is 66 mm/mercury.

And the “Antipsychotic Activity (% decrease in climbing score)” value ([3]; dose 10 mg/kg of body wt)?
Its value is 31%.

Which results are given for `CSc1ccc2c(c1)N(CCC1CCCCN1C)c1ccccc1S2` (centres unmarked) [thioridazine]?
Antipsychotic Activity (% decrease in climbing score) ([3]; dose 3.5 mg/kg of body wt): 50%; ED50 [4, 6]: 2.6 mg/kg; ED50 [4, 7]: 3.5 mg/kg; % Monkeys showing extrapyramidal symptoms ([5]; 3.5 mg/kg): 100%; % Monkeys showing extrapyramidal symptoms ([5]; 7 mg/kg): 100%

Which “Blood Pressure Decrease” value [1] does the source give for `Cc1ccccc1N1CCN(CCCc2noc3cc(F)ccc23)CC1` [Example 6, 1-[3-(6-Fluoro-1,2-benzisoxazol-3-yl)propyl]-4-(2-methylphenylpiperazine oxalate] here?
Its value is 33 mm/mercury.

With `N=C(N)NCCN1CCCCCCC1` [guanethidine, reference compound] as the compound, how does the “Blood Pressure Decrease” value [1] read?
Its value is 20 mm/mercury.

Which ED50 [2] does the source give for `CC(C)=CCN1CCC2(C)c3cc(O)ccc3CC1C2C` (centres unmarked) [pentazocine, reference compound] here?
The ED50 was 1.3 mg/kg.

How did the “Blood Pressure Decrease” value [1] turn out when `Cl.Fc1ccc2c(CCCN3CCN(c4ccccc4Cl)CC3)noc2c1` [Example 4, 4-(2-Chlorophenyl)-1-[3-(6-fluoro-1,2-benzisoxazol-3-yl)propyl]piperazine hydrochloride] was run?
Its value is 55 mm/mercury.

Which results are given for `COc1ccccc1N1CCN(CCCc2noc3cc(F)ccc23)CC1` [Example 1, 1-[3-(6-Fluoro-1,2-benzisoxazol-3-yl)propyl]-4-(2-methoxyphenyl)piperazine dihydrochloride]?
ED50 ([2]; mice, subcutaneous): 5.2 mg/kg; Antipsychotic Activity (% decrease in climbing score) ([3]; dose 4.1 mg/kg of body wt): 50%; ED50 [4, 6]: 2.9 mg/kg; ED50 [4, 7]: 4.8 mg/kg; ED50 ([4]; squirrel monkeys, oral, printed as dose with * in Table V, read-out: ED50 value in the Sidman Avoidance Paradigm in squirrel monkeys (footnote * to Table V)): 3.5 mg/kg; % Monkeys showing extrapyramidal symptoms ([5]; 3.5 mg/kg): 0%; % Monkeys showing extrapyramidal symptoms ([5]; 5 mg/kg): 0%; % Monkeys showing extrapyramidal symptoms ([5]; 10 mg/kg): 66%

With `O=C(CCCN1CCC(O)(c2ccc(Cl)cc2)CC1)c1ccc(F)cc1` [haloperidol] as the compound, how does the “Antipsychotic Activity (% decrease in climbing score)” value ([3]; dose 0.11 mg/kg of body wt) read?
The value was 50%.

And the ED50 ([4]; po, read-out: Antipsychotic Activity, Avoidance Response ED50)?
The ED50 was 1.21 mg/kg.

What about the ED50 ([4]; po, read-out: Antipsychotic Activity, Escape Response ED50) of the same compound?
Its ED50 is 1.27 mg/kg.

What about the ED50 ([4]; po, read-out: ED50 value in the Sidman Avoidance Paradigm in squirrel monkeys (footnote * to Table V)) of the same compound?
Its ED50 is 1.3 mg/kg.

What about the “% Monkeys showing extrapyramidal symptoms” value ([5]; 0.625 mg/kg) of the same compound?
Its value is 33%.

And the “% Monkeys showing extrapyramidal symptoms” value ([5]; 1.3 mg/kg)?
The value was 100%.

Source: patent US4536578A, “1-[3-(6-Fluoro-1,2-benzisoxazol-3-yl)propyl]-4-(substituted)piperazines” (Hoechst-Roussel Pharmaceuticals Inc., priority 1982, dated 1985)
